Experimental data from ChEMBL document CHEMBL1201861, “Genomics of Drug Sensitity in Cancer screening data, Wellcome Trust Sanger Institute”.

Tests used:
Assay in all cases: cells
HOP-62 = type: functional, cell-based, Homo sapiens; details: Homo sapiens, HOP-62
Description: SANGER: Inhibition of human HOP-62 cell growth in a cell viability assay.

SK-LMS-1 = type: functional, cell-based, Homo sapiens; details: Homo sapiens, SK-LMS-1
Description: SANGER: Inhibition of human SK-LMS-1 cell growth in a cell viability assay.

COLO-320-HSR = type: functional, cell-based, Homo sapiens; details: Homo sapiens, COLO-320-HSR
Description: SANGER: Inhibition of human COLO-320-HSR cell growth in a cell viability assay.

NTERA-2-cl-D1 = type: functional, cell-based, Homo sapiens; details: Homo sapiens, NTERA-2-cl-D1
Description: SANGER: Inhibition of human NTERA-S-cl-D1 cell growth in a cell viability assay.

BE-13 = type: functional, cell-based, Homo sapiens; details: Homo sapiens, BE-13
Description: SANGER: Inhibition of human BE-13 cell growth in a cell viability assay.

TE-8 = type: functional, cell-based, Homo sapiens; details: Homo sapiens, TE-8
Description: SANGER: Inhibition of human TE-8 cell growth in a cell viability assay.

NB69 = type: functional, cell-based, Homo sapiens; details: Homo sapiens, NB69
Description: SANGER: Inhibition of human NB69 cell growth in a cell viability assay.

SW 962 = type: functional, cell-based, Homo sapiens; details: Homo sapiens, SW 962
Description: SANGER: Inhibition of human SW962 cell growth in a cell viability assay.

NCI-H1355 = type: functional, cell-based, Homo sapiens; details: Homo sapiens, NCI-H1355
Description: SANGER: Inhibition of human NCI-H1355 cell growth in a cell viability assay.

NEC8 = type: functional, cell-based, Homo sapiens; details: Homo sapiens, NEC8
Description: SANGER: Inhibition of human NEC8 cell growth in a cell viability assay.

SK-MEL-1 = type: functional, cell-based, Homo sapiens; details: Homo sapiens, SK-MEL-1
Description: SANGER: Inhibition of human SK-MEL-1 cell growth in a cell viability assay.

ES1 = type: functional, cell-based, Homo sapiens; details: Homo sapiens, ES1
Description: SANGER: Inhibition of human ES1 cell growth in a cell viability assay.

A3-KAW = type: functional, cell-based, Homo sapiens; details: Homo sapiens, A3-KAW
Description: SANGER: Inhibition of human A3-KAW cell growth in a cell viability assay.

LS-1034 = type: functional, cell-based, Homo sapiens; details: Homo sapiens, LS-1034
Description: SANGER: Inhibition of human LS-1034 cell growth in a cell viability assay.

SNU-C2B = type: functional, cell-based; details: Homo sapiens
Description: SANGER: Inhibition of human SNU-C2B cell growth in a cell viability assay.

NOMO-1 = type: functional, cell-based, Homo sapiens; details: Homo sapiens, NOMO-1
Description: SANGER: Inhibition of human NOMO-1 cell growth in a cell viability assay.

8-MG-BA = type: functional, cell-based, Homo sapiens; details: Homo sapiens, 8-MG-BA
Description: SANGER: Inhibition of human 8-MG-BA cell growth in a cell viability assay.

BT-474 = type: functional, cell-based, Homo sapiens; details: Homo sapiens, BT-474
Description: SANGER: Inhibition of human BT-474 cell growth in a cell viability assay.

A388 = type: functional, cell-based; details: Homo sapiens
Description: SANGER: Inhibition of human A388 cell growth in a cell viability assay.

JVM-3 = type: functional, cell-based, Homo sapiens; details: Homo sapiens, JVM-3
Description: SANGER: Inhibition of human JVM-3 cell growth in a cell viability assay.

MS-1 = type: functional, cell-based, Homo sapiens; details: Homo sapiens, MS-1
Description: SANGER: Inhibition of human MS-1 cell growth in a cell viability assay.

SK-N-DZ = type: functional, cell-based, Homo sapiens; details: Homo sapiens, SK-N-DZ; read-out: IC50
Description: SANGER: Inhibition of human SK-N-DZ cell growth in a cell viability assay.

KGN = type: functional, cell-based, Homo sapiens; details: Homo sapiens, KGN
Description: SANGER: Inhibition of human KGN cell growth in a cell viability assay.

HCE-4 = type: functional, cell-based; details: Homo sapiens
Description: SANGER: Inhibition of human HCE-4 cell growth in a cell viability assay.

NMC-G1 = type: functional, cell-based, Homo sapiens; details: Homo sapiens, NMC-G1
Description: SANGER: Inhibition of human NMC-G1 cell growth in a cell viability assay.

DSH1 = type: functional, cell-based; details: Homo sapiens
Description: SANGER: Inhibition of human DSH1 cell growth in a cell viability assay.

D283 Med = type: functional, cell-based, Homo sapiens; details: Homo sapiens, D283 Med
Description: SANGER: Inhibition of human D-283MED cell growth in a cell viability assay.

OCUB-M = type: functional, cell-based; details: Homo sapiens
Description: SANGER: Inhibition of human OCUB-M cell growth in a cell viability assay.

NCI-H1299 = type: functional, cell-based; details: Homo sapiens
Description: SANGER: Inhibition of human NCI-H1299 cell growth in a cell viability assay.

CCRF-CEM = type: functional, cell-based, Homo sapiens; details: Homo sapiens, CCRF-CEM
Description: SANGER: Inhibition of human CCRF-CEM cell growth in a cell viability assay.

SHP77 = type: functional, cell-based, Homo sapiens, SHP-77; details: Homo sapiens, SHP77
Description: SANGER: Inhibition of human SHP-77 cell growth in a cell viability assay.

SK-N-FI = type: functional, cell-based, Homo sapiens; details: Homo sapiens, SK-N-FI
Description: SANGER: Inhibition of human SK-N-FI cell growth in a cell viability assay.

MZ1-PC = type: functional, cell-based, Homo sapiens; details: Homo sapiens, MZ1-PC
Description: SANGER: Inhibition of human MZ1-PC cell growth in a cell viability assay.

HEL = type: functional, cell-based, Homo sapiens; details: Homo sapiens, HEL
Description: SANGER: Inhibition of human HEL cell growth in a cell viability assay.

RPMI-8866 = type: functional, cell-based, Homo sapiens; details: Homo sapiens, RPMI-8866
Description: SANGER: Inhibition of human RPMI-8866 cell growth in a cell viability assay.

JAR = type: functional, cell-based, Homo sapiens; details: Homo sapiens, JAR
Description: SANGER: Inhibition of human JAR cell growth in a cell viability assay.

TE-9 = type: functional, cell-based, Homo sapiens; details: Homo sapiens, TE-9
Description: SANGER: Inhibition of human TE-9 cell growth in a cell viability assay.

RPMI-8226 = type: functional, cell-based, Homo sapiens; details: Homo sapiens, RPMI-8226
Description: SANGER: Inhibition of human RPMI-8226 cell growth in a cell viability assay.

SW982 = type: functional, cell-based; details: Homo sapiens
Description: SANGER: Inhibition of human SW982 cell growth in a cell viability assay.

RH-1 = type: functional, cell-based, Homo sapiens; details: Homo sapiens, RH-1
Description: SANGER: Inhibition of human RH-1 cell growth in a cell viability assay.

NCI-H1648 = type: functional, cell-based, Homo sapiens; details: Homo sapiens, NCI-H1648
Description: SANGER: Inhibition of human NCI-H1648 cell growth in a cell viability assay.

NCI-H69 = type: functional, cell-based, Homo sapiens; details: Homo sapiens, NCI-H69
Description: SANGER: Inhibition of human NCI-H69 cell growth in a cell viability assay.

MV4-11 = type: functional, cell-based, Homo sapiens, MV-4-11; details: Homo sapiens, MV4-11
Description: SANGER: Inhibition of human MV-4-11 cell growth in a cell viability assay.

LB2518-MEL = type: functional, cell-based; details: Homo sapiens
Description: SANGER: Inhibition of human LB2518-MEL cell growth in a cell viability assay.

D-247MG = type: functional, cell-based; details: Homo sapiens
Description: SANGER: Inhibition of human D-247MG cell growth in a cell viability assay.

NB13 = type: functional, cell-based, Homo sapiens; details: Homo sapiens, NB13
Description: SANGER: Inhibition of human NB13 cell growth in a cell viability assay.

LU-139 = type: functional, cell-based, Homo sapiens; details: Homo sapiens, LU-139
Description: SANGER: Inhibition of human LU-139 cell growth in a cell viability assay.

SF-126 = type: functional, cell-based, Homo sapiens; details: Homo sapiens, SF-126
Description: SANGER: Inhibition of human SF126 cell growth in a cell viability assay.

AM-38 = type: functional, cell-based, Homo sapiens; details: Homo sapiens, AM-38
Description: SANGER: Inhibition of human AM-38 cell growth in a cell viability assay.

## CO[C@@H]1[C@H](N(C)C(=O)c2ccccc2)C[C@H]2O[C@]1(C)n1c3ccccc3c3c4c(c5c6ccccc6n2c5c31)C(=O)NC4 [MIDOSTAURIN]
HOP-62
  IC50: 181 nM
SK-LMS-1
  IC50: 353 nM
COLO-320-HSR
  IC50: > 512 nM
NTERA-2-cl-D1
  IC50: 209 nM
BE-13
  IC50: > 512 nM
TE-8
  IC50: > 512 nM
NB69
  IC50: > 512 nM
SW 962
  IC50: > 512 nM

## CC1=C(/C=C/C(C)=C/C=C/C(C)=C/C(=O)O)C(C)(C)CCC1 [TRETINOIN]
NCI-H1355
  IC50: > 10 µM
NEC8
  IC50: > 10 µM
SK-MEL-1
  IC50: > 10 µM
ES1
  IC50: > 10 µM
A3-KAW
  IC50: 7.6 µM
LS-1034
  IC50: > 10 µM
SNU-C2B
  IC50: > 10 µM
NOMO-1
  IC50: > 10 µM
8-MG-BA
  IC50: > 10 µM
BT-474
  IC50: > 10 µM
HOP-62
  IC50: > 10000 nM
A388
  IC50: > 10 µM
JVM-3
  IC50: > 10 µM
MS-1
  IC50: > 10 µM
SK-LMS-1
  IC50: > 10000 nM
SK-N-DZ
  IC50: > 10 µM
KGN
  IC50: > 10 µM
HCE-4
  IC50: > 10 µM
NMC-G1
  IC50: > 10 µM
DSH1
  IC50: > 10 µM
D283 Med
  IC50: 283 nM
OCUB-M
  IC50: > 10 µM
NCI-H1299
  IC50: > 10 µM
CCRF-CEM
  IC50: > 10 µM
SHP77
  IC50: > 10 µM
SK-N-FI
  IC50: > 10 µM
MZ1-PC
  IC50: > 10 µM
HEL
  IC50: > 10 µM
RPMI-8866
  IC50: > 10 µM
JAR
  IC50: > 10 µM
TE-9
  IC50: > 10 µM
RPMI-8226
  IC50: 993 nM
COLO-320-HSR
  IC50: > 10000 nM
NTERA-2-cl-D1
  IC50: > 10000 nM
SW982
  IC50: > 10 µM
RH-1
  IC50: > 10 µM
BE-13
  IC50: > 10000 nM
TE-8
  IC50: > 10000 nM
NCI-H1648
  IC50: 9.74 µM
NCI-H69
  IC50: 2270 nM
MV4-11
  IC50: 21 nM
LB2518-MEL
  IC50: > 10 µM
D-247MG
  IC50: > 10 µM
NB13
  IC50: 257 nM
NB69
  IC50: > 10000 nM
SW 962
  IC50: > 10000 nM
LU-139
  IC50: > 10000 nM
SF-126
  IC50: > 10 µM
AM-38
  IC50: > 10 µM

## NC(=O)c1ccc(N(C(N)=O)c2c(F)cccc2F)nc1-c1ccc(F)cc1F [VX-702]
NCI-H1355
  IC50: > 2 µM
NEC8
  IC50: > 2 µM
SK-MEL-1
  IC50: > 2 µM
ES1
  IC50: > 2 µM
A3-KAW
  IC50: > 2 µM
LS-1034
  IC50: > 2 µM
SNU-C2B
  IC50: > 2 µM
NOMO-1
  IC50: > 2 µM
8-MG-BA
  IC50: > 2 µM
BT-474
  IC50: > 2 µM
HOP-62
  IC50: 15.4 nM
A388
  IC50: > 2 µM
JVM-3
  IC50: > 2 µM
MS-1
  IC50: > 2 µM
SK-LMS-1
  IC50: > 2000 nM
SK-N-DZ
  IC50: > 2 µM
KGN
  IC50: > 2 µM
HCE-4
  IC50: > 2 µM
NMC-G1
  IC50: > 2 µM
DSH1
  IC50: > 2 µM
D283 Med
  IC50: > 2000 nM
OCUB-M
  IC50: > 2 µM
NCI-H1299
  IC50: > 2 µM
CCRF-CEM
  IC50: > 2 µM
SHP77
  IC50: > 2 µM
SK-N-FI
  IC50: > 2 µM
MZ1-PC
  IC50: > 2 µM
HEL
  IC50: > 2 µM
RPMI-8866
  IC50: > 2 µM
JAR
  IC50: > 2 µM
TE-9
  IC50: > 2 µM
RPMI-8226
  IC50: > 2000 nM
COLO-320-HSR
  IC50: > 2000 nM
NTERA-2-cl-D1
  IC50: > 2000 nM
SW982
  IC50: > 2 µM
RH-1
  IC50: > 2 µM
BE-13
  IC50: > 2000 nM
TE-8
  IC50: > 2000 nM
NCI-H1648
  IC50: > 2 µM
NCI-H69
  IC50: 99.4 nM
MV4-11
  IC50: > 2000 nM
LB2518-MEL
  IC50: > 2 µM
D-247MG
  IC50: > 2 µM
NB13
  IC50: > 2000 nM
NB69
  IC50: > 2000 nM
SW 962
  IC50: > 2000 nM
LU-139
  IC50: 194 nM
SF-126
  IC50: > 2 µM
AM-38
  IC50: > 2 µM
